Source: ChEMBL document CHEMBL3991601, “The target landscape of clinical kinase drugs” (Science, 2017)
Calls of active or inactive are those of the source.

What was measured:
[1] = target: Receptor-interacting serine/threonine-protein kinase 3 (Homo sapiens, UniProt Q9Y572)
Heme oxygenase 2 = target: T1, Heme oxygenase 2 (Homo sapiens, UniProt P30519)
T1 sequence (P30519 whole entry): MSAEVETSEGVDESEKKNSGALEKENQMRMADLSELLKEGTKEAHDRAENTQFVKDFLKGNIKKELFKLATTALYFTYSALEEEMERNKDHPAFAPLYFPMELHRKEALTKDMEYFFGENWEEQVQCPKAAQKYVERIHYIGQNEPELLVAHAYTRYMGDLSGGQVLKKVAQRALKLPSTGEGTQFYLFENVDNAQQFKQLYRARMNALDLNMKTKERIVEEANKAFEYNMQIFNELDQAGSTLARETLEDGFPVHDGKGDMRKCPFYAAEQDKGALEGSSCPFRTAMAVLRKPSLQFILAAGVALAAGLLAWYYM

[2] = target: Tyrosine-protein kinase JAK1 (Homo sapiens, UniProt P23458)
Chain of Tyrosine-protein kinase JAK1 (P23458 whole entry): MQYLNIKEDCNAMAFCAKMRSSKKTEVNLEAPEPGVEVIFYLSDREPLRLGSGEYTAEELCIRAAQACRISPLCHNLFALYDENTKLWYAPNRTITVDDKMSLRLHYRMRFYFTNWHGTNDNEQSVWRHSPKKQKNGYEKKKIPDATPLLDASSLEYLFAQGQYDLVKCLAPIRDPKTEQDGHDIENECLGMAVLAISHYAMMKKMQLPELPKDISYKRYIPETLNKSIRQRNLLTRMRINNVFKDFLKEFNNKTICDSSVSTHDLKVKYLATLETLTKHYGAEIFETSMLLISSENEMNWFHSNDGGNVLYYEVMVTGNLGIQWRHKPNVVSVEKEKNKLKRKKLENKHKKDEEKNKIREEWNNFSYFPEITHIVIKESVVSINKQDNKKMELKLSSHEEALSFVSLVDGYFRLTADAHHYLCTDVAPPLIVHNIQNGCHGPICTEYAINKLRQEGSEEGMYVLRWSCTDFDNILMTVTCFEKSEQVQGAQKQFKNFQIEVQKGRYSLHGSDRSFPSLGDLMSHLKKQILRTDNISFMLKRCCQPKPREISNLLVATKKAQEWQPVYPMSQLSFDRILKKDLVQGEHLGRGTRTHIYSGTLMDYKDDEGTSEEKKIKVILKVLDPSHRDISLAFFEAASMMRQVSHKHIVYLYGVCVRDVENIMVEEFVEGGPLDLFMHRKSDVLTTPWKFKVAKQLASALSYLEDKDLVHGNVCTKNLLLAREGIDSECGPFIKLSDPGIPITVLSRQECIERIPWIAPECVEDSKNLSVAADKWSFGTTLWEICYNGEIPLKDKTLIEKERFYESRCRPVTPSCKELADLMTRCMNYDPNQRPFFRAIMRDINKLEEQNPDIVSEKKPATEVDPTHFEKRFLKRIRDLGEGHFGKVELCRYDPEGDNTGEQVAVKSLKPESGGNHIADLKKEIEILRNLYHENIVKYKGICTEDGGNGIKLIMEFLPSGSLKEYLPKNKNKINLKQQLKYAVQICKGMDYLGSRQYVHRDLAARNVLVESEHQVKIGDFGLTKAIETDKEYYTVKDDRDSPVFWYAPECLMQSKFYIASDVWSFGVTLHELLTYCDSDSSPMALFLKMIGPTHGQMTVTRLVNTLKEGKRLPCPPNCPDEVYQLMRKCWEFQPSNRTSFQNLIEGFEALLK

[3] = target: T2, ATP-dependent RNA helicase DDX42 (Homo sapiens, UniProt Q86XP3)
T2 sequence (Q86XP3 whole entry): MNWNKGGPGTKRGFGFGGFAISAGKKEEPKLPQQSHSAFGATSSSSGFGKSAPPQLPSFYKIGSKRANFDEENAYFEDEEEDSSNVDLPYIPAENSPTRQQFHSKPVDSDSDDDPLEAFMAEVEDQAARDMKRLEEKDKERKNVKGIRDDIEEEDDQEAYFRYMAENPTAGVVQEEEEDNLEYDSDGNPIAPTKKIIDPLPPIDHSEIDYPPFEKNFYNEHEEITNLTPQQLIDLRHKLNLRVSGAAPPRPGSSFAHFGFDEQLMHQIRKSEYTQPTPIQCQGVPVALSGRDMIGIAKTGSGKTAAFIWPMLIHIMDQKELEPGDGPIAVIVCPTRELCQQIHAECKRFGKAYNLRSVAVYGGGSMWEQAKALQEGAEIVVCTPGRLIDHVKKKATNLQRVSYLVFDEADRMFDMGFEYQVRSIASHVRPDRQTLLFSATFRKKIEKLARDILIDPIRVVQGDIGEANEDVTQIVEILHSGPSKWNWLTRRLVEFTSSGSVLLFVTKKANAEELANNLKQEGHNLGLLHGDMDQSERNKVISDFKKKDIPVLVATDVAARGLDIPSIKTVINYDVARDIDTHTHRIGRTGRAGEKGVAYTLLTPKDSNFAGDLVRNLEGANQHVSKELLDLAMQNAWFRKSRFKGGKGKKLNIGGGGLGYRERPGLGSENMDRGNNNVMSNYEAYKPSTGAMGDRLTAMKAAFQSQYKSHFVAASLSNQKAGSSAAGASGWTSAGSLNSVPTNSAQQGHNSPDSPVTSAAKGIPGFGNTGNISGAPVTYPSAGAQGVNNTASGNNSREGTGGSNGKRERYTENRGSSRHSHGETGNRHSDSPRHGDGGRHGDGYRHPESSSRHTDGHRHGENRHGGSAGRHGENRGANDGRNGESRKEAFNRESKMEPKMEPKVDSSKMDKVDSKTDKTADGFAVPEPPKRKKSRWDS

[4] = target: ATP-dependent RNA helicase DDX3X (Homo sapiens, UniProt O00571)
Chain of ATP-dependent RNA helicase DDX3X (O00571 whole entry): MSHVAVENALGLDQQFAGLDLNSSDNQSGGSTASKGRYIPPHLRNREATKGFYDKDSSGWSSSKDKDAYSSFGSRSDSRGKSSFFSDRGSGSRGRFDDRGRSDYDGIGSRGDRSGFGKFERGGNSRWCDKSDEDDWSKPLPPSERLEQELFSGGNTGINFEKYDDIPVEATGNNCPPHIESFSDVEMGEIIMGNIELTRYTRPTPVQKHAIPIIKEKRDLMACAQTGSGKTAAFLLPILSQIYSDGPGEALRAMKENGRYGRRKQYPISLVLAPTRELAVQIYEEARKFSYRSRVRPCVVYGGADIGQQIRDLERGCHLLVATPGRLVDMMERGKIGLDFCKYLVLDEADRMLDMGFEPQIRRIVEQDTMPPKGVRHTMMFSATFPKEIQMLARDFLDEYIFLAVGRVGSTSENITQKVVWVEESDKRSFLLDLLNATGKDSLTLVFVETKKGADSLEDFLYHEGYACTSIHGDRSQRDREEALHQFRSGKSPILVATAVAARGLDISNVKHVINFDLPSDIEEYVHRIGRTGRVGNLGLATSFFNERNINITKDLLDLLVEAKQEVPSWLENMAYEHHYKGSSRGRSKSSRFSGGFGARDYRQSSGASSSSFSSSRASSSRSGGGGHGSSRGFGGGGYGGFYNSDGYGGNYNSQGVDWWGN

[5] = target: T3, Peroxisomal acyl-coenzyme A oxidase 3 (Homo sapiens, UniProt O15254)
T3 sequence (O15254 whole entry): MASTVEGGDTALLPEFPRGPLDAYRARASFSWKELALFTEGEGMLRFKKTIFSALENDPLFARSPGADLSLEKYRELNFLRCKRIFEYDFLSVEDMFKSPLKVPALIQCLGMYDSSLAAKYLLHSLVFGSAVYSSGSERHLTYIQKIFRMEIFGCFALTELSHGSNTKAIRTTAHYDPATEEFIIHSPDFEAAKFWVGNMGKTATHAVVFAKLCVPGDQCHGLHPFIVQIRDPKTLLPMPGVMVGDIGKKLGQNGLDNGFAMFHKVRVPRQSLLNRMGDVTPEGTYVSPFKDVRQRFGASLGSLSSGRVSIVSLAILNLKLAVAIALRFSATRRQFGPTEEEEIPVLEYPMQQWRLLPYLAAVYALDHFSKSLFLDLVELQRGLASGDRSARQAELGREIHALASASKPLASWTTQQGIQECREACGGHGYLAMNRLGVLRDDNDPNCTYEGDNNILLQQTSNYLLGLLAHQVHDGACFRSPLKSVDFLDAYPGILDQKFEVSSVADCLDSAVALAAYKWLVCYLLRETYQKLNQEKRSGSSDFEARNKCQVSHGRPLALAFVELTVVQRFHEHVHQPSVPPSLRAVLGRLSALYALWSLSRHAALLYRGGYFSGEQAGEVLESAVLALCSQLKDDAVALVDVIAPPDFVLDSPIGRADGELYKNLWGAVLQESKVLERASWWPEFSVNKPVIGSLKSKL

Midasin = Midasin (Homo sapiens, UniProt Q9NU22)
[6] = target: Proto-oncogene tyrosine-protein kinase Src (Homo sapiens, UniProt P12931)
Chain of Proto-oncogene tyrosine-protein kinase Src (P12931 2-536 limits assumed): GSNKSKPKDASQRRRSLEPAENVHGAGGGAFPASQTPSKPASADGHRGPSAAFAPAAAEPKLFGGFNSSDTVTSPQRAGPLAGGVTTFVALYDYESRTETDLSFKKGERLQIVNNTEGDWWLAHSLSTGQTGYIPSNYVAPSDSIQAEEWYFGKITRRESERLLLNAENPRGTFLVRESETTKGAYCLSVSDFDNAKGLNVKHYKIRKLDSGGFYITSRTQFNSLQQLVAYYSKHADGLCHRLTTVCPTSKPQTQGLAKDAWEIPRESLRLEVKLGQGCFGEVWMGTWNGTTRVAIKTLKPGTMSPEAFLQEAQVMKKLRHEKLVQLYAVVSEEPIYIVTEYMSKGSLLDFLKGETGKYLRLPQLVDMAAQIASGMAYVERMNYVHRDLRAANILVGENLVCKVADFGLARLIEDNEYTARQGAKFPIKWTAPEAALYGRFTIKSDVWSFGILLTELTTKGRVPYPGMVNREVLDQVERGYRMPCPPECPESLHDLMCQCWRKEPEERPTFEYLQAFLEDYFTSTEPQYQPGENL

[7] = target: T4, Serine/threonine-protein kinase A-Raf (Homo sapiens, UniProt P10398)
T4 sequence (P10398 whole entry): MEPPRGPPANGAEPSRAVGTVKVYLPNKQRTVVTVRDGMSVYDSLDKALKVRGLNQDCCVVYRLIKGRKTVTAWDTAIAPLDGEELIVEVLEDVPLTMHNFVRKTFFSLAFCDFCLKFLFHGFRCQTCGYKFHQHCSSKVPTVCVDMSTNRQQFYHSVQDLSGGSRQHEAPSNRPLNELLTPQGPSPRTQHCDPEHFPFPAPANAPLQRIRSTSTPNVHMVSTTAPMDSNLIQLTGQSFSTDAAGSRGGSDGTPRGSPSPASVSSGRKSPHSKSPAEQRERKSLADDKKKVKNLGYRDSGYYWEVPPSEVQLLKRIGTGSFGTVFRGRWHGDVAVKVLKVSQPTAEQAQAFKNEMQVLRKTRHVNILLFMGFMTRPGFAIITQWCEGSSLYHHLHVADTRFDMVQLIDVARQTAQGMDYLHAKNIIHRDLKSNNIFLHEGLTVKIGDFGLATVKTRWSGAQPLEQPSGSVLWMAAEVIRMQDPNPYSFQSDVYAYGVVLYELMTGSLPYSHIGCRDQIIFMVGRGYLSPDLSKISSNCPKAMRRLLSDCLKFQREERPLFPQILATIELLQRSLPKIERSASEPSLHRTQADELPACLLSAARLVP

[8] = target: MAP/microtubule affinity-regulating kinase 3 (Homo sapiens, UniProt P27448)
Chain of MAP/microtubule affinity-regulating kinase 3 (P27448 whole entry): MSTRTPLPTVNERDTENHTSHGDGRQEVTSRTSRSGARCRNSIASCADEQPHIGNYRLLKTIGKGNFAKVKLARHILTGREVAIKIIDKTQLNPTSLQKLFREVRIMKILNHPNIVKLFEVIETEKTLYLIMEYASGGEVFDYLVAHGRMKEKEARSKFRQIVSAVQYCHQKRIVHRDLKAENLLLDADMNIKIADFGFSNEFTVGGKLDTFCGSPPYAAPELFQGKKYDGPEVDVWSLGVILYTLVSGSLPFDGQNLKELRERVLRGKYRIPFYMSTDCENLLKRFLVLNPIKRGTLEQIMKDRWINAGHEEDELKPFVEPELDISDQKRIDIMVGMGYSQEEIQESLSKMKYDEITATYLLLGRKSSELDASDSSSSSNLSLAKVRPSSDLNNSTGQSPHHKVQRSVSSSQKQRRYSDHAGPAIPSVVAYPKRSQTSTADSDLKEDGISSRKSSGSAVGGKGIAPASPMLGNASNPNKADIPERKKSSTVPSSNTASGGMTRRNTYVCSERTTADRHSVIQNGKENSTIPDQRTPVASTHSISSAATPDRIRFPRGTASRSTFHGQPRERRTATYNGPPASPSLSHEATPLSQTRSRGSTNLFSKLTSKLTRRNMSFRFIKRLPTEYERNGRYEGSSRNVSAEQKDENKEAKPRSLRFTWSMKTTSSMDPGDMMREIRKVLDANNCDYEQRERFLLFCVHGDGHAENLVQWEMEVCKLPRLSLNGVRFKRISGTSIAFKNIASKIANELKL

[9] = target: Fibroblast growth factor receptor 1 (Homo sapiens, UniProt P11362)
Chain of Fibroblast growth factor receptor 1 (P11362 whole entry): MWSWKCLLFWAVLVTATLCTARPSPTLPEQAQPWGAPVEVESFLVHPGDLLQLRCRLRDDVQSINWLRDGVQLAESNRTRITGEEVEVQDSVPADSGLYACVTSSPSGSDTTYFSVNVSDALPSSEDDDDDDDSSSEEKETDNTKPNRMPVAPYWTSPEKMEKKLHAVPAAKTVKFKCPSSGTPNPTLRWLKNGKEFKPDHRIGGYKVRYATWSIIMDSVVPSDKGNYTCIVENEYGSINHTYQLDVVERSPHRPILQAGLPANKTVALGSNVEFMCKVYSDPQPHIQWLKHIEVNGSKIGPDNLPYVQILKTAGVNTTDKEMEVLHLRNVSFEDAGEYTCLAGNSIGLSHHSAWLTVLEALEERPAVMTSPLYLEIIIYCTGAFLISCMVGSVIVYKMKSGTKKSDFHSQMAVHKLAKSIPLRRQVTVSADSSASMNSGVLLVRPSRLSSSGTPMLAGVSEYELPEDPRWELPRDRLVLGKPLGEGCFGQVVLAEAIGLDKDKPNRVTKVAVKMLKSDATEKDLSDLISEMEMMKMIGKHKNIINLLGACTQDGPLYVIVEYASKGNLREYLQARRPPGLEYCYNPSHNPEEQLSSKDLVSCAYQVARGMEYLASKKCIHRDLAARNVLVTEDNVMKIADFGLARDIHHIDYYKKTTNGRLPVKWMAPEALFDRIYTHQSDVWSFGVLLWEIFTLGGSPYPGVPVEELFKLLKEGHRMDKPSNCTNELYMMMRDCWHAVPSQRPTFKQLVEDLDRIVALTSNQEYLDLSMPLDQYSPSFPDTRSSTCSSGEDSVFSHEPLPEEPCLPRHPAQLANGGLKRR
Further: in the data inactive means no Kd found up to 30 µM.

Chain of Receptor-interacting serine/threonine-protein kinase 3 (Q9Y572 whole entry): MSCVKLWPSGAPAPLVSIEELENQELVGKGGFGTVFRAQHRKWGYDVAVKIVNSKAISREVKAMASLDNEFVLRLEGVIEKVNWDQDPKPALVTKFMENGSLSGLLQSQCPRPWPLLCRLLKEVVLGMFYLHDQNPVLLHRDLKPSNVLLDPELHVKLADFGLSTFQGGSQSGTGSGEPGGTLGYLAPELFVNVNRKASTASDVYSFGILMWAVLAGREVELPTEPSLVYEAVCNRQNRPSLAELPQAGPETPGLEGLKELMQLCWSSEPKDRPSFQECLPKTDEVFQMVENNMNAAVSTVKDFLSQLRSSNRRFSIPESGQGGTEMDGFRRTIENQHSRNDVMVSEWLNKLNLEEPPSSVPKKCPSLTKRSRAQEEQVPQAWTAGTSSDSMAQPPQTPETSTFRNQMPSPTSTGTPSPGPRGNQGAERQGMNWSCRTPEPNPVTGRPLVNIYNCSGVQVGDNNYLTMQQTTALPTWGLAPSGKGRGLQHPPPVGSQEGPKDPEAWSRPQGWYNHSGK

Structure (SMILES)	Kd [1]	Kd (Heme oxygenase 2)	Kd [2]	Kd [3]	Kd [4]	Kd [5]	Kd (Midasin)	Kd [6]	Kd [7]	Kd [8]	Kd [9]
CC[C@H](Nc1ncnc2[nH]cnc12)c1nc2cccc(F)c2c(=O)n1-c1ccccc1 [IDELALISIB]	> 30 µM (inactive)	> 30 µM (inactive)	> 30 µM (inactive)	> 30 µM (inactive)	> 30 µM (inactive)	> 30 µM (inactive)	> 30 µM (inactive)	> 30 µM (inactive)	> 30 µM (inactive)	> 30 µM (inactive)	> 30 µM (inactive)
CNS(=O)(=O)Nc1nccc(Cc2c(C)c3ccc(Oc4ncccn4)cc3oc2=O)c1F [AVUTOMETINIB]	> 30 µM (inactive)	> 30 µM (inactive)	> 30 µM (inactive)	> 30 µM (inactive)	> 30 µM (inactive)	> 30 µM (inactive)	> 30 µM (inactive)	> 30 µM (inactive)	> 30 µM (inactive)	> 30 µM (inactive)	> 30 µM (inactive)
CC(=O)Nc1cccc(-n2c(=O)n(C3CC3)c(=O)c3c(Nc4ccc(I)cc4F)n(C)c(=O)c(C)c32)c1 [TRAMETINIB]	> 30 µM (inactive)	> 30 µM (inactive)	> 30 µM (inactive)	> 30 µM (inactive)	> 30 µM (inactive)	> 30 µM (inactive)	> 30 µM (inactive)	> 30 µM (inactive)	> 30 µM (inactive)	> 30 µM (inactive)	> 30 µM (inactive)
CO[C@H]1C[C@@H]2CC[C@@H](C)[C@@](O)(O2)C(=O)C(=O)N2CCCC[C@H]2C(=O)O[C@H]([C@H](C)C[C@@H]2CC[C@@H](OCCO)[C@H](OC)C2)CC(=O)[C@H](C)/C=C(\C)[C@@H](O)[C@@H](OC)C(=O)[C@H](C)C[C@H](C)/C=C/C=C/C=C/1C [EVEROLIMUS]	> 30 µM (inactive)	> 30 µM (inactive)	> 30 µM (inactive)	> 30 µM (inactive)	> 30 µM (inactive)	> 30 µM (inactive)	> 30 µM (inactive)	> 30 µM (inactive)	> 30 µM (inactive)	> 30 µM (inactive)	> 30 µM (inactive)
O=c1sn(-c2cccc3ccccc23)c(=O)n1Cc1ccccc1 [TIDEGLUSIB]	> 30 µM (inactive)	> 30 µM (inactive)	> 30 µM (inactive)	> 30 µM (inactive)	> 30 µM (inactive)	> 30 µM (inactive)	> 30 µM (inactive)	> 30 µM (inactive)	> 30 µM (inactive)	> 30 µM (inactive)	> 30 µM (inactive)
CC(C)Nc1cc(-c2c[nH]c(C(=O)N[C@H](CO)c3cccc(Cl)c3)c2)c(Cl)cn1 [ULIXERTINIB]	> 30 µM (inactive)	> 30 µM (inactive)	> 30 µM (inactive)	> 30 µM (inactive)	> 30 µM (inactive)	> 30 µM (inactive)	> 30 µM (inactive)	> 30 µM (inactive)	> 30 µM (inactive)	> 30 µM (inactive)	> 30 µM (inactive)
CN1CC[C@@H](c2c(O)cc(O)c3c(=O)cc(-c4ccccc4Cl)oc23)[C@@H]1CO	> 30 µM (inactive)	> 30 µM (inactive)	> 30 µM (inactive)	0.002 µM	> 30 µM (inactive)	> 30 µM (inactive)	> 30 µM (inactive)	> 30 µM (inactive)	> 30 µM (inactive)	> 30 µM (inactive)	> 30 µM (inactive)
C1=C/COCc2cc(ccc2OCCN2CCCC2)Nc2nccc(n2)-c2cccc(c2)COC/1 [PACRITINIB]	> 30 µM (inactive)	> 30 µM (inactive)	> 30 µM (inactive)	> 30 µM (inactive)	> 30 µM (inactive)	> 30 µM (inactive)	> 30 µM (inactive)	> 30 µM (inactive)	> 30 µM (inactive)	> 30 µM (inactive)	> 30 µM (inactive)
CNC(=O)c1ccc(-c2cnc3ncc(Cc4ccc5ncccc5c4)n3n2)cc1F [CAPMATINIB]	> 30 µM (inactive)	> 30 µM (inactive)	> 30 µM (inactive)	> 30 µM (inactive)	> 30 µM (inactive)	> 30 µM (inactive)	> 30 µM (inactive)	> 30 µM (inactive)	> 30 µM (inactive)	> 30 µM (inactive)	> 30 µM (inactive)

Next, values leading:

Kd [1]	Kd (Heme oxygenase 2)	Kd [2]	Kd [3]	Kd [4]	Kd [5]	Kd (Midasin)	Kd [6]	Kd [7]	Kd [8]	Kd [9]	Structure (SMILES)
> 30 µM (inactive)	> 30 µM (inactive)	> 30 µM (inactive)	> 30 µM (inactive)	> 30 µM (inactive)	> 30 µM (inactive)	> 30 µM (inactive)	> 30 µM (inactive)	> 30 µM (inactive)	> 30 µM (inactive)	> 30 µM (inactive)	O=C(O)[C@]1(Cc2cccc(Nc3nccs3)n2)CC[C@@H](Oc2cccc(Cl)c2F)CC1 [MK-5108]
> 30 µM (inactive)	> 30 µM (inactive)	> 30 µM (inactive)	> 30 µM (inactive)	> 30 µM (inactive)	> 30 µM (inactive)	> 30 µM (inactive)	> 30 µM (inactive)	> 30 µM (inactive)	> 30 µM (inactive)	> 30 µM (inactive)	Cn1cc(-c2ccc3nnc(C(F)(F)c4ccc5ncccc5c4)n3n2)cn1 [JNJ-38877605]
> 30 µM (inactive)	> 30 µM (inactive)	> 30 µM (inactive)	> 30 µM (inactive)	> 30 µM (inactive)	> 30 µM (inactive)	> 30 µM (inactive)	> 30 µM (inactive)	> 30 µM (inactive)	> 30 µM (inactive)	> 30 µM (inactive)	COc1cc(N2CCC(N3CCN(C)CC3)CC2)ccc1Nc1ncnc(Nc2ccccc2S(=O)(=O)C(C)C)n1 [ASP-3026]
